Laboratory results published in patent publication US8871460B2, “Gamma-secretase modulatory compounds, methods for identifying same, and uses therefor” (Neurogenetic Pharmaceuticals, Inc., priority 2009, dated 2014).
One block for each compound: values may come before it.

Assays:
[1] = tested on: ε-cleavage of a gamma-secretase substrate, Notch; experiment: Epsilon cleavage assay: Notch (NICD) in HEK293 cells overexpressing APP751 and NΔE/S2; type: cell-based; conditions: 18 h
Protocol: The effect of Compound 2 treatment on ε-cleavage of a gamma-secretase substrate, Notch, was assessed using an HEK293 clonal cell line overexpressing APP751 and the Notch construct NΔE/S2. The NΔE/S2 construct lacks most of the extracellular domain of Notch (Schroeter et al. (1998) Nature 393:382-386), and when cleaved by γ-secretase results in production of the Notch intracellular domain (NICD). The cells were plated in replicate 24-well dishes and treated in triplicate with 30 μM of Compound 2, 1 μM of the gamma secretase inhibitor N—[N-(3,5-Difluorophenacetyl-L-alanyl)]S-phenylglycine t-butyl ester (DAPT), or vehicle (0.12% DMSO), for 18 h. Following compound treatment, conditioned medium was collected and analyzed for levels of secreted Aβ40, which confirmed compound activity. Cell lysates were prepared and separated on a 4-20% Tris-glycine gel and probed with an anti-NICD antibody (Cell Signaling, #2421) specific for the cleaved NICD, or anti-GAPDH, which served as a loading control for each lane. NICD bands were then quantified by densitometry and an average of replicate values was compared to the vehicle controls.

[2] = tested on: γ-secretase-dependent cleavage of E-cadherin; experiment: γ-secretase-dependent cleavage of E-cadherin in A431 cells, western blotting; type: cell-based, Human; conditions: overnight (16-18 h), then 6 h 1 μM staurosporine
Protocol: To measure γ-secretase-dependent cleavage of E-cadherin, an assay similar to that described by Marambaud et al. (2002) EMBO 21: 1948-1956 was developed. Human A431 cells which endogenously express detectable levels of E-cadherin and cleave full length E-cadherin upon treatment with staurosporine are treated overnight (16-18 h) with either test compound or control γ-secretase inhibitor (DAPT). Cleavage of E-cadherin is induced by a 6 h treatment with 1 μM staurosporine. Cell lysates are analyzed for levels of γ-CTF by western blotting and protein bands are quantified by densitometry.

[3] = tested on: ε-cleavage of endogenous E-cadherin; conditions: cited from earlier work
GST-Pen2 = GST-Pen2 (Homo sapiens, UniProt Q9NZ42); experiment: Surface plasmon resonance (SPR) assay, Biacore 2000; conditions: equilibrium responses fit to 1:1 binding isotherm; estimated
GST-Pen2, sequence (Q9NZ42 whole entry): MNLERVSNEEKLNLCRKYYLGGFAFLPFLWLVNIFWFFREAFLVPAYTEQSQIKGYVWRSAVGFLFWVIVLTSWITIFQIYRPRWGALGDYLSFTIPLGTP
Protocol: A surface plasmon resonance (SPR) assay was performed using the Biacore™ 2000 system and control software (Biacore Life Sciences), essentially as described in Warnmark et al. (2001) J. Biol. Chem. 276:23397-23404. Compound 2 or L-685,458 (Sigma #L1790) were diluted 30 fold from a 25 mM stock in 100% DMSO, then each further diluted into running buffer containing 10 mM HEPES, 150 mM NaCl, 1% Triton X-100, pH 7.4. The compounds were run in a 3-fold dilution series over a GST-Pen2 or a free GST flow cell surface. The binding responses at equilibrium for each compound were fit to a 1:1 binding isotherm in order to estimate the binding affinities.

gamma-secretase [4] = experiment: Sandwich ELISA of secreted Aβ from CHO-APPSwe cells; type: cell-based, Chinese Hamster; conditions: 18 h
Protocol: For ELISA analysis, CHO-APPSwe cells were seeded at a density of 100K/well in 96-well plates and allowed to adhere overnight. Medium was removed and replaced with complete DMEM medium containing either vehicle alone (DMSO) or a dose-response of Compound 2 or GSI 1 (the gamma-secretase inhibitor designated Inhibitor 1 in Tian et al. (2002) J. Biol. Chem. 277:31499-31505). Cells were incubated with compounds for 18 h, medium collected, and levels of secreted Aβ determined as described below. Cytotoxicity was determined on each well to be less than 30% using an Alamar Blue assay (see US Published Application 2005/0070538).
Secreted Aβ38 peptide was quantified using an ultra-sensitive sandwich ELISA assay kit (Meso Scale Detection catalog #K111FSE-2) and the Meso Scale Sector Imager 6000 for detection, according to the manufacturer's recommended protocol. Captured Aβ was quantified by comparing ECL signals of the samples to a standard curve (included on each plate) using synthetic Aβ prepared in complete DMEM medium. Aβ standard peptides were purchased from Bachem and stored at 0.5 mg/ml in hexafluoroisopropanol (HFIP) at −20° C.
Secreted Aβ40, Aβ42, and total Aβ were measured using specific sandwich ELISAs. Aβ peptides were captured using either an Aβ40-selective monoclonal antibody (B113), an Aβ42-selective monoclonal antibody (A387), or a total Aβ (1-x) capture monoclonal antibody raised to the amino-terminal region (B436) (see PCT publication WO 04/018997).
Briefly, 96-well white ELISA plates were coated with the appropriate capture antibody, wells were blocked with 1% BSA/TBS, and then samples were assayed in complete medium at an appropriate dilution so that the relative luminescent units (RLUs) were in the linear range of the standard curve. Following sample incubation for all ELISAs, plates were washed and exposed to an alkaline phosphatase (AP) conjugated secondary antibody. For Aβ40 and Aβ42, B436-AP was used as the second antibody in the sandwich ELISA. For the total Aβ ELISA, 4G8-biotin (Signet) (a monoclonal antibody that recognizes the Aβ17-24) was used in combination with strepavidin-AP as the detection complex. Thus, for this experiment, total Aβ includes Aβ peptides from 1-x, where x>24. Bound AP-conjugates were detected with CSPD-Sapphire II Luminescence Substrate (Applied Biosystems) and plates were read using a standard 96-well luminometer.
Captured Aβ was quantified by comparing RLU values of the samples to a standard curve (included on each plate) using synthetic Aβ prepared in complete media. Aβ standard peptides were purchased from Bachem and stored at 0.5 mg/ml in hexafluoroisopropanol (HFIP) at −20° C.

gamma-secretase [5] = experiment: Immunoprecipitation and immunoblot analysis of Aβ in CHO-APPSwe conditioned medium; type: cell-based, Chinese Hamster; conditions: 18 h, Compound 2 0.3-1000 nM, GSI 1 3-1000 nM
Protocol: For this analysis, CHO-APPSwe cells were treated with concentrations of Compound 2 ranging from 0.3 nM to 1000 nM, or with concentrations of a gamma-secretase inhibitor, GSI 1 (Tian et al. (2002) J. Biol. Chem. 277 (35), 31499-31505) ranging from 3 nM to 1000 nM, or with vehicle (0.12% DMSO), for 18 hours. The conditioned medium was collected and immunoprecipitated with the anti-Aβ1-12 antibody B436. Samples were denatured and electrophoresed on gels prepared according to Wiltfang et al. (1997) Electrophoresis 18:527-532, with the following improvements: the separating gel contained 12.5% instead of 15% acrylamide, the comb gel layer was omitted, and glycerol (25%) and DTT (100 mM) were substituted for sucrose and β-mercaptoethanol in the 2× sample buffer. Chemically synthesized Aβ1-37, Aβ1-38, Aβ1-40 and Aβ1-42 peptides (Bachem) were run as size standards. After electrophoresis, the peptides were transferred to nitrocellulose filters and immunoblotted with a biotinylated B436 antibody to detect the various Aβ alloforms.

gamma-secretase [6] = experiment: Mass spectrometry (SELDI) analysis of secreted Aβ from CHO-APPSwe cells; type: cell-based, Chinese Hamster; conditions: 1 μM, 18 h
Protocol: CHO-APPSwe cells were plated at 1 million cells per well in 6-well dishes and treated with complete DMEM medium containing either vehicle alone (DMSO), 1 μM Compound 2, or 1 μM GSI 1. Cells were incubated for 18 h, medium collected, and levels of secreted Aβ determined by mass spectrometry. Briefly, collected medium was immunoprecipitated overnight using antibody B436 coupled directly to Sepharose. Fifty ng of Aβ1-28 peptide was spiked into the medium as an internal standard. The Sepharose beads were then washed with TBS and bound Aβ was eluted with acetonitrile/0.1% trifluoroacetic acid. Eluate (3-6 μl) was spotted on NP20 chips (Ciphergen). Once the samples were dry, 20% CHCA matrix was spotted (1 μl) and allowed to dry. Chips were read on a SELDI Ciphergen mass spectrometer and Aβ peptides were identified by expected mass and comparison to standard purchased Aβ peptides (Bachem).

[7] = to a lesser extent than Aβ37 and Aβ38

SMILES: C[C@H](NC(=O)Cc1cc(F)cc(F)c1)C(=O)N[C@H](C(=O)OC(C)(C)C)c1ccccc1 [DAPT, N—[N-(3,5-Difluorophenacetyl-L-alanyl)]S-phenylglycine t-butyl ester, reference compound]
inhibition of NICD formation ([1]; 1 μM): > 95%
inhibition of E-cadherin cleavage/processing (γ-CTF) [2]: completely inhibits
effect on E-cadherin CTF1 or CTF3 [3]: no effect
formation of E-cadherin CTF2 [3]: inhibit

Kd (GST-Pen2): 1900 µM
SMILES: CC(C)C[C@H](NC(=O)[C@H](Cc1ccccc1)C[C@@H](O)[C@H](Cc1ccccc1)NC(=O)OC(C)(C)C)C(=O)N[C@@H](Cc1ccccc1)C(N)=O [L-685,458]
effect on E-cadherin CTF1 or CTF3 [3]: no effect
formation of E-cadherin CTF2 [3]: inhibit

SMILES: COc1cc(C)c(Nc2nc(-c3ccc(-n4cnc(C)c4)c(F)c3)cs2)cc1C(C)C [Compound 2]
Kd (GST-Pen2): 6.5 µM
secreted Aβ40 level (gamma-secretase [4]; ELISA): concentration dependent decrease
secreted Aβ42 level (gamma-secretase [4]; ELISA): concentration dependent decrease
total Aβ level (gamma-secretase [4]; ELISA, Aβ 1-x, x>24): did not significantly change
secreted Aβ38 level (gamma-secretase [4]; ultra-sensitive sandwich ELISA): markedly increased
level of Aβ1-37 in conditioned medium (gamma-secretase [5]): increase
level of Aβ1-38 in conditioned medium (gamma-secretase [5]): increase
level of Aβ1-40 in conditioned medium (gamma-secretase [5]): lower
Aβ37 compared to vehicle treated cells (gamma-secretase [6]): increased
Aβ38 compared to vehicle treated cells (gamma-secretase [6]): increased
Aβ33 compared to vehicle treated cells (gamma-secretase [6]; [7]): increased
Aβ34 compared to vehicle treated cells (gamma-secretase [6]; [7]): increased
inhibition of Notch processing ([1]; up to 30 μM): no detectable inhibition
inhibition of E-cadherin cleavage/processing (γ-CTF) [2]: no detectable inhibition

SMILES: C[C@H](NC(=O)Cc1cc(F)cc(F)c1)C(=O)N[C@H]1N=C(c2ccccc2)c2ccccc2N(C)C1=O [Compound E]
effect on E-cadherin CTF1 or CTF3 [3]: no effect
formation of E-cadherin CTF2 [3]: inhibit
